{"source": "paper PMC12715984", "about": "“Co‐cultivation and Medium Optimization: A Strategy for Discovering Fungal‐derived Protease Inhibitors” (Chemistry & Biodiversity, 2025)", "key": {"[1]": {"test_system": "T. cruzi Tulahuen lacZ strain", "experiment": "Anti-T. cruzi activity, intracellular amastigotes in HFF-1 cells, beta-galactosidase/CPRG readout", "details": "Trypanosoma cruzi, HFF-1, 120 h", "text": "The evaluation utilized the genetically modified T. cruzi Tulahuen lacZ strain, engineered to express the lacZ gene encoding β‐galactosidase. Viable intracellular parasites express this enzyme, which hydrolyzes the substrate chlorophenol red‐β‐D‐galactopyranoside (CPRG) to release chlorophenol red, a chromogenic product quantified spectrophotometrically at 570 nm. The absorbance intensity directly correlates with the number of metabolically active parasites present during the assay.\nAxenic cultures of T. cruzi epimastigotes (strain MHOM/CH/00/Tulahuen C2, lacZ) were grown in LIT medium containing 10% fetal calf serum (FCS) at 28°C. During the exponential growth phase, parasites were collected via centrifugation (250 × g, 10 min), resuspended in Grace's insect medium supplemented with 10% FCS, and differentiated into metacyclic trypomastigotes over 5–14 days. Differentiated parasites were harvested and used to infect Human Foreskin Fibroblasts (HFF‐1), cultured in Dulbecco's Modified Eagle Medium (DMEM) with 10% FCS under 5% CO2 at 37°C.\nFor infection assays, HFF‐1 cells were plated in 96‐well plates (5 × 10⁴ cells/well) in 80 µL phenol red‐free DMEM and incubated overnight. Metacyclic trypomastigotes (5 × 10⁵ parasites/well in 20 µL) were added, followed by 24‐hour incubation. After this period, trypomastigotes differentiate into intracellular amastigotes. Non‐infective parasites were removed by replacing the medium with 100 µL fresh DMEM. Test compounds, at varying concentrations, were then applied to determine IC50 values against intracellular amastigotes, with benznidazole as the positive control. After 5 days of incubation (37°C, 5% CO2), 50 µL of 1 mM CPRG and 0.1% IGEPAL CA‐630 (a non‐ionic detergent) were added. β‐Galactosidase activity, reflecting parasite viability, induced a colorimetric shift from yellow to red, measured at 570 nm. Growth inhibition percentages were calculated relative to untreated controls. Benznidazole was used as the positive control and DMSO as the negative control."}, "[2]": {"test_system": "Candida albicans (ATCC 64548)", "experiment": "Antifungal broth microdilution (CLSI M27A3), MIC", "format": "cell-based", "details": "for MIC: Candida albicans, ATCC64548, read-out: minimum inhibitory concentration (MIC)", "procedure": "The antifungal activity of compounds 1–5, 7–11 was evaluated using the broth microdilution method in 96‐well plates, following the Clinical Laboratory Standard Institute (CLSI) guidelines M27A3 [35, 36], with minor modifications. The assay was performed against Candida auris (CDC B11903), Candida parapsilosis (ATCC 22019), and Candida albicans (ATCC 64548), and based on the determination of the minimum inhibitory concentration (MIC).\nEach compound was initially dissolved in DMSO at a stock concentration 100 times higher than the highest concentration tested. Working solutions were subsequently prepared in RPMI 1640 culture medium (pH 7.0), supplemented with L‐glutamine, devoid of bicarbonate, and containing phenol red as a pH indicator, to yield a 2 × concentration. Serial two‐fold dilutions were made to obtain final concentrations ranging from 3.125 to 200.00 µg/mL. Fluconazole was used as a reference antifungal control.\nAliquots of 100 µL of each 2 × test solution were dispensed into the wells of the microdilution plates. Fungal suspensions were prepared in autoclaved distilled water and adjusted to a final concentration of 5.0 × 10^3 conidia or blastoconidia/mL. After inoculation, plates were incubated at 37°C. Fungal growth was visually assessed after 24 and 48 h. […] All assays were performed in duplicate."}, "papain [3]": {"target": "T1, papain (Carica papaya, UniProt P00784)", "T1 construct": "purchased", "T1 sequence (P00784 134-345)": "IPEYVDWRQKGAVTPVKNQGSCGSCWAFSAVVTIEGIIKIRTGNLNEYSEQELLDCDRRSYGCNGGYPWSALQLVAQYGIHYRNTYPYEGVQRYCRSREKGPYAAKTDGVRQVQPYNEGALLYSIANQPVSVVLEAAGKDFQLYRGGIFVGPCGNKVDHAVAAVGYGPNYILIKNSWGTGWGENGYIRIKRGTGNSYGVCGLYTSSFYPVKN", "experiment": "Papain inhibition, fluorometric Z-Phe-Arg-MCA assay", "format": "biochemical", "details": "for inhibition at 100 µM: read-out: % inhibition (100 µM)", "procedure": "Compounds 1, 2, 4, and 7–11 were tested against papain inhibitory activity. Papain served as the model cysteine protease in the protease inhibition assay. Enzyme activity was assessed via real‐time fluorometric monitoring of 7‐amino‐4‐methylcoumarin (MCA) release during substrate cleavage. Hydrolysis of the fluorogenic substrate Z‐Phe‐Arg‐MCA (ZFR‐MCA) was tracked in black 96‐well plates using a spectrofluorometer (λex/λem = 380/460 nm) (SpectraMax M3, Molecular Devices).\nEach reaction well contained 5 µL papain (80 nM), 2 µL dithiothreitol (DTT, 500 mM), and 158 µL sodium acetate buffer (100 mM, pH 5.5, 5 mM EDTA). After a 5‐minute pre‐incubation at 27°C, 5 µL of test compound (dissolved in DMSO) or DMSO (negative control) was added. In the initial screening, all compounds were tested at a fixed concentration of 100 µM to evaluate their inhibitory potential. Following a second 5‐minute incubation at 27°C, 30 µL ZFR‐MCA (0.6 mM) was added, and fluorescence was recorded every 300 s using a SpectraMax M3 microplate reader (Molecular Devices). This concentration guided subsequent serial dilutions to determine the IC50 (half‐maximal inhibitory concentration).\nFor this, a serial dilution series was prepared from the active compounds, and the assay was conducted as previously described. Final assay conditions (200 µL/well) yielded effective compound concentrations of 100 µM to 1.56 µM for IC50 determination. Papain's molar concentration was validated via titration with the irreversible inhibitor E‐64 (positive control) from 1.0 µM to 31.25 nM. All experiments included triplicate measurements across two independent trials (total n = 6)."}, "Cytotoxicity assay, MTS": {"experiment": "Cytotoxicity assay, MTS", "format": "cell-based", "details": "human, HFF-1, 120-hour incubation, maximum tested 64 µM", "procedure": "Cytotoxicity assays: HFF‐1 fibroblasts (provided by Rio de Janeiro Cell Bank (BCRJ)) were seeded at a density of 2 × 10^3 cells per well in 100 µL of DMEM and incubated overnight at 37°C in a 5% CO2 atmosphere. Subsequently, test compounds were added in serial dilutions, followed by a 120‐hour incubation period under the same conditions. Each plate included negative controls and doxorubicin as a positive control. After incubation, 15 µL of MTS reagent (CellTiter96) was added to each well, and plates were incubated for an additional 4 h. Absorbance was measured at 490 nm using a microplate reader. The percentage of growth inhibition was calculated relative to the absorbance of the negative control wells."}, "papain [4]": {"target": "T1, papain", "parameters": "method as in earlier work", "details": "at 200 µM; cited from earlier work"}, "bacteria": {"test_system": "bacteria", "parameters": "method as in PMID 21497643", "details": "cited from earlier work"}, "plant-parasitic nematode": {"test_system": "plant-parasitic nematode", "parameters": "method as in PMID 27990770", "details": "cited from earlier work"}, "Cryphonectria parasitica": {"test_system": "Cryphonectria parasitica", "parameters": "method as in PMID 11052720", "details": "against Cryphonectria parasitica; cited from earlier work"}, "papain [5]": {"target": "T1, papain", "parameters": "method as in PMID 32189177", "details": "at a concentration of 50 µM, cited from earlier work"}}, "note": "Where two headings read alike, the source gives them in different places."}
{"compound": "O=C(Cn1ccnc1[N+](=O)[O-])NCc1ccccc1", "note": "[Benznidazole, reference compound]", "values": [{"measurement": "IC50", "setting": "[1]", "result": "2.24 ± 0.9", "unit": "µM"}]}
{"compound": "CCCCc1ccc(C(=O)[O][Mg][O]C(=O)c2ccc(CCCC)cn2)nc1", "note": "[Compound 2, magnesium complex of fusaric acid]", "values": [{"measurement": "MIC", "setting": "[2]", "result": 50, "unit": "µg/mL"}, {"measurement": "IC50", "setting": "papain [3]; papain", "result": 17.5, "unit": "µM"}, {"measurement": "inhibition at 100 µM", "setting": "papain [3]", "result": "94 ± 7.9", "unit": "%"}, {"measurement": "CC50 at 120 h", "setting": "Cytotoxicity assay, MTS", "result": "> 64", "unit": "µM"}, {"measurement": "IC50", "setting": "[1]", "result": "12.2 ± 0.4", "unit": "µM"}]}
{"compound": "CSC12CC3=CC=CC(OC(C)=O)C3N1C(=O)C1(SC)CC3=CC=CC(OC(C)=O)C3N1C2=O", "note": "(centres unmarked) [Compound 4, haematocin]", "values": [{"measurement": "MIC", "setting": "[2]", "result": 100, "unit": "µg/mL"}, {"measurement": "IC50", "setting": "papain [3]", "result": 47.7, "unit": "µM"}, {"measurement": "inhibition at 100 µM", "setting": "papain [3]", "result": 76.6, "unit": "%"}, {"measurement": "CC50 at 120 h", "setting": "Cytotoxicity assay, MTS", "result": "> 64", "unit": "µM"}, {"measurement": "IC50", "setting": "[1]", "result": "13.3 ± 1", "unit": "µM"}]}
{"compound": "CCCCc1ccc(C(=O)O)nc1", "note": "[Compound 5, fusaric acid]", "values": [{"measurement": "CC50 at 120 h", "setting": "Cytotoxicity assay, MTS", "result": "> 64", "unit": "µM"}, {"measurement": "papain inhibition", "setting": "papain [4]", "result": 58, "unit": "%"}, {"measurement": "IC50", "setting": "[1]", "result": "20.9 ± 0.3", "unit": "µM"}]}
{"compound": "C[C@@H](O)CCc1ccc(C(=O)O)nc1", "note": "[Compound 7, (R)‐fusarinolic acid]", "values": [{"measurement": "CC50 at 120 h", "setting": "Cytotoxicity assay, MTS; HFF-1 fibroblasts", "result": "> 64", "unit": "µM"}, {"measurement": "antibacterial activity", "setting": "bacteria", "result": "no significant activity"}, {"measurement": "plant-parasitic nematode activity", "setting": "plant-parasitic nematode", "result": "no significant activity"}, {"measurement": "IC50", "setting": "[1]", "result": "60.07 ± 0.6", "unit": "µM"}]}
{"compound": "CC(C)=CCCC(C)(O)C1CCC(C)(O)C1C", "note": "(centres unmarked) [Compound 8, cyclonerodiol]", "values": [{"measurement": "inhibition at 100 µM", "setting": "papain [3]; papain, compound at 100 µM", "result": 89, "unit": "%"}, {"measurement": "IC50", "setting": "papain [3]; papain, read-out: IC50", "result": 25.9, "unit": "µM"}, {"measurement": "CC50 at 120 h", "setting": "Cytotoxicity assay, MTS; HFF-1 fibroblasts", "result": "> 64", "unit": "µM"}, {"measurement": "antifungal activity", "setting": "Cryphonectria parasitica", "result": "weak antifungal activity"}, {"measurement": "IC50", "setting": "[1]", "result": "22.7 ± 1.1", "unit": "µM"}]}
{"compound": "CC(C)C[C@H](NC(=O)[C@H]1O[C@@H]1C(=O)O)C(=O)NCCCCN=C(N)N", "note": "[E‐64, reference compound]", "values": [{"measurement": "IC50", "setting": "papain [3]; papain, positive control, read-out: IC50", "result": 0.0072, "unit": "µM"}]}
{"compound": "CC(C)C[C@@H]1NC(=O)[C@@H]2CCCN2C1=O", "note": "[cyclo(L‐Leu‐L‐Pro) diketopiperazine]", "values": [{"measurement": "papain inhibition", "setting": "papain [5]; 50 µM", "result": 3, "unit": "%"}]}
{"compound": "CC(C)[C@@H]1NC(=O)[C@@H]2CCCN2C1=O", "note": "[cyclo(L‐Val‐L‐Pro)]", "values": [{"measurement": "papain inhibition", "setting": "papain [5]", "result": 10, "unit": "%"}]}
{"compound": "Iron complex of fusaric acid [Compound 1]", "values": [{"measurement": "minimum inhibitory concentration (MIC)", "setting": "[2]; C. albicans, tested 3.125 to 200.00 µg/mL", "result": 100, "unit": "µg/mL"}, {"measurement": "% inhibition (100 µM)", "setting": "papain [3]; papain, compound at 100 µM, 100 µM", "result": 88.6, "unit": "%"}, {"measurement": "IC50", "setting": "papain [3]; papain, read-out: IC50", "result": 14.1, "unit": "µM"}]}
